Activity calls are given as the source filed them.
Key:
RAW264.7 [1] = assay: Cytotoxicity against mouse RAW264.7 cells assessed as reduction in cell viability at 10 uM incubated for 24 hrs by CCK-8 assay; format: toxicity, cell-based; conditions: raw264.7, 24 h
Mus musculus [2] = assay: Anti-inflammatory activity in ovalbumin-induced allergic rhinitis male Balb/c mouse model assessed as decrease in p-p38 intranuclear expression in nasal mucosal at 5 mg/kg, po administered via gavage for 7 days by immunofluorescence staining based analysis; format: functional, organism-based; conditions: time 7.0 day
RAW264.7 [3] = assay: Downregulation of P-P65 protein expression in LPS-induced mouse RAW264.7 cells by Western blotting analysis; format: functional, cell-based
Mus musculus [4] = assay: Anti-inflammatory activity in ovalbumin-induced allergic rhinitis male Balb/c mouse assessed as reduction in number of goblet cells in nasal mucosal tissues at 5 mg/kg, po administered via gavage for 7 days by PAS staining based analysis; format: functional, organism-based; conditions: time 7.0 day
RAW264.7 [5] = assay: Downregulation of p-P38 protein expression in LPS-induced mouse RAW264.7 cells by Western blotting analysis; format: functional, cell-based
Mus musculus [6] = assay: Anti-inflammatory activity in ovalbumin-induced allergic rhinitis male Balb/c mouse model assessed as reduction in sneezing at 5 mg/kg, po administered via gavage for 7 days; format: functional, organism-based; conditions: time 7.0 day
RAW264.7 [7] = assay: Downregulation of p-JNK protein expression in LPS-induced mouse RAW264.7 cells by Western blotting analysis; format: functional, cell-based
RAW264.7 [8] = assay: Downregulation of P-IKBalpha protein expression in LPS-induced mouse RAW264.7 cells by Western blotting analysis; format: functional, cell-based
Mus musculus [9] = assay: Anti-inflammatory activity in ovalbumin-induced allergic rhinitis male Balb/c mouse assessed as reduction in number of eosinophils on nasal lavage fluid at 5 mg/kg, po administered via gavage for 7 days by giemsa staining based analysis; format: functional, organism-based; conditions: time 7.0 day
Mus musculus [10] = assay: Anti-inflammatory activity in ovalbumin-induced allergic rhinitis male Balb/c mouse assessed as reduction in number of cells on nasal lavage fluid at 5 mg/kg, po administered via gavage for 7 days by giemsa staining based analysis; format: functional, organism-based; conditions: time 7.0 day
RAW264.7 [11] = assay: Downregulation of CB1 R expression in LPS-induced mouse RAW264.7 cells by immunofluorescence staining based analysis; format: functional, cell-based
Mus musculus [12] = assay: Anti-inflammatory activity in ovalbumin-induced allergic rhinitis male Balb/c mouse assessed as reduction in inflammation of nasal mucosal tissue at 5 mg/kg, po administered via gavage for 7 days by H and E staining based analysis; format: functional, organism-based; conditions: time 7.0 day
RAW264.7 [13] = assay: Downregulation of p-P38 expression in mouse RAW264.7 cells by immunofluorescence staining based analysis; format: functional, cell-based
Mus musculus [14] = assay: Anti-inflammatory activity in ovalbumin-induced allergic rhinitis male Balb/c mouse model assessed as reduction in IL-4 expression in nasal lavage fluid at 5 mg/kg, po administered via gavage for 7 days by ELISA; format: functional, organism-based; conditions: time 7.0 day
Mus musculus [15] = assay: Anti-inflammatory activity in ovalbumin-induced allergic rhinitis male Balb/c mouse model assessed as reduction in IgE expression at 5 mg/kg, po administered via gavage for 7 days (reference value: 0.268 +/- 0.045); format: functional; conditions: time 7 day
RAW264.7 [16] = assay: Downregulation of p-ERK protein expression in LPS-induced mouse RAW264.7 cells by Western blotting analysis; format: functional, cell-based
Mus musculus [17] = assay: Anti-inflammatory activity in ovalbumin-induced allergic rhinitis male Balb/c mouse model assessed as reduction in serum histamine expression at 5 mg/kg, po administered via gavage for 7 days by ELISA; format: functional, organism-based; conditions: time 7.0 day
Mus musculus [18] = assay: Anti-inflammatory activity in ovalbumin-induced allergic rhinitis male Balb/c mouse assessed as reduction in number of mast cells on nasal lavage fluid at 5 mg/kg, po administered via gavage for 7 days by giemsa staining based analysis; format: functional, organism-based; conditions: time 7.0 day
RAW264.7 [19] = assay: Downregulation of p-P38 intranuclear expression in mouse RAW264.7 cells by immunofluorescence staining based analysis; format: functional, cell-based
Mus musculus [20] = assay: Anti-inflammatory activity in ovalbumin-induced allergic rhinitis male Balb/c mouse model assessed as reduction in nose scratching at 5 mg/kg, po administered via gavage for 7 days; format: functional, organism-based; conditions: time 7.0 day

Measured: Activity

CN(/C=C\c1ccccc1)C(=O)c1ncn(-c2ccccc2)n1
Non-toxic: RAW264.7 [1]

C[C@@H]1C[C@H]2[C@@H]3CCC4=CC(=O)C=C[C@]4(C)[C@@]3(F)[C@@H](O)C[C@]2(C)[C@@]1(O)C(=O)CO [DEXAMETHASONE]
0.126: Mus musculus [15]
not listed: RAW264.7 [1]
active: all other assays above

CN(/C=C\c1ccccc1)C(=O)c1nc(-c2ccc(Cl)cc2)n(-c2ccccc2)n1
Non-toxic: RAW264.7 [1]

Cc1ccccc1-c1nc(C(=O)N(C)/C=C\c2ccccc2)nn1-c1ccccc1
Non-toxic: RAW264.7 [1]

Cc1cc(C)c(-c2nc(C(=O)N(C)/C=C\c3ccccc3)nn2-c2ccccc2)c(C)c1
Non-toxic: RAW264.7 [1]

CCc1nc(C(=O)N(C)/C=C\c2ccccc2)nn1-c1ccccc1
Non-toxic: RAW264.7 [1]
